Experimental findings from publication PMC10179937, “Cytotoxic Activity, Topoisomerase I Inhibition and In Silico Studies of New Sesquiterpene-aryl Ester Derivatives of (-) Drimenol” (Molecules, 2023) are described below.

The subject of assay [1] is PC-3 (prostate adenocarcinoma). Briefly: Sulforhodamine B in vitro growth inhibition assay, PC-3. The format is cell-based, human. The settings on record: for IC50: Homo sapiens, sulforhodamine B assay, 72 h of treatment, IC50 ± SD; for Selectivity Index (SI) MCF-10/PC-3: IC50 in non-cancerogenic cell line / IC50 in cancer cell line. As to the method:
(§1) For this purpose, a colorimetric sulforhodamine B assay was performed to quantify the cytotoxic effect through their respective IC50 values. Each compound’s serial dilutions (12.5, 25, 50, and 100 µM) were evaluated in triplicate. In our study, the human cancer cell lines used were MCF-7 (breast adenocarcinoma); HT-29 (colorectal adenocarcinoma); PC-3 (prostate adenocarcinoma); and MCF-10 control cells (normal breast epithelium). For comparative purposes, the literature IC50 values of daunorubicin and 5-fluorouracil (5-FU), measured in the same cell lines and under the same experimental conditions, were included. Similarly, drimenol (1) was included for comparative purposes.
(§2) The sulforhodamine B assay was used. Briefly, the cells were set up at 5 × 10^3 cells per well of a 96-well microplate for 18 h. Cells were incubated at 37 °C in a humidified 5% CO2/95% air mixture and treated with the compounds at different concentrations for 72 h. At the end of drug exposure, cells were fixed with 50% trichloroacetic acid at 4 °C. After washing with distilled water, cells were stained with 0.1% sulforhodamine B, dissolved in 1% acetic acid (50 μL/well) for 30 min, and, subsequently, washed with 1% acetic acid to remove the unbound stain. The protein-bound stain was solubilized with 100 μL of 10 mM unbuffered Tris base, and the cell density was determined using a […] (wavelength 540 nm). Results are expressed as IC50 values (μM) ± SD.

Assay [2] concerns MCF-10 control cells (normal breast epithelium). Briefly: Sulforhodamine B in vitro growth inhibition assay, MCF-10 control cells. The class given is cell-based. Particulars: Homo sapiens, MCF10, 72 h of treatment, IC50 ± SD, non-tumoral cells. As to the method:
as §1, §2

The subject of assay [3] is HT-29 (colorectal adenocarcinoma). In words: Sulforhodamine B in vitro growth inhibition assay, HT-29. The format is cell-based, human. Particulars: for IC50: Homo sapiens, HT-29, sulforhodamine B assay, 72 h of treatment, IC50 ± SD; for Selectivity Index (SI) MCF-10/HT-29: IC50 in non-cancerogenic cell line / IC50 in cancer cell line. As to the method: as §1, §2
For assay [4], the system named is MCF-7 (breast adenocarcinoma). In words: Sulforhodamine B in vitro growth inhibition assay, MCF-7. The class given is cell-based, human. Particulars: for IC50: Homo sapiens, MCF7, sulforhodamine B assay, 72 h of treatment, IC50 ± SD; for Selectivity Index (SI) MCF-10/MCF-7: IC50 in non-cancerogenic cell line / IC50 in cancer cell line. On the procedure:
as §1, §2

Assay [5] has as its system caspases 3 and 7 on MCF-7 cells. In words: Caspase-Glo 3/7 assay. The class given is cell-based, human. Particulars: 50 μM, 24 h. On the procedure: To determine the cell death type induced by the most promising aryl-drimane esters, we evaluated their capacity to induce apoptosis through the activation of caspases 3 and 7 on MCF-7 cells. For this purpose, 6a, 6e, 6f, 8c, 8f, and 8g were incubated for 24 h on MCF-7 cells at a concentration of 50 μM, close to the IC50 values for cytotoxicity in most compounds. […] In summary, these drimane derivatives induced apoptosis in the MCF-7 cell line, showing a potential antitumoral effect.
The activity of caspase 3/7 in treated MCF-7 cells was determined using a Caspase-Glo-3/7 Assay kit (Promega, UK—Cat. No G8090). The caspase-Glo 3/7 assay is a homogenous, luminescent assay that measures caspase-3 and -7 activities, both key-players in apoptosis. […] Luminescence was proportional to the amount of caspase present. MCF-7 cells (1 × 10^4 cells per well) were grown in a 96-well white plate and were allowed to adhere overnight. The cells were then treated for 24 h with the synthesized compounds (50 µM), with the inclusion of a blank as a control. After treatment, the Caspase-Glo® 3/7 was prepared according to the manufacturer’s guidelines. Briefly, 100 μL of Caspase-Glo 3/7 reagent was added to 100 μL of culture medium containing the cells previously treated in each well. The content was mixed gently by placing the plate on a shaker for 30 s, and the plate was incubated at room temperature in the dark for 1 h before luminescence was read on a luminometer (Berthold Sirius Single Tube Luminometer, Pforzheim, Germany). Fold change in caspase activity was obtained by first subtracting the luminescence value for the blank well from every other value, and then, expressing the average luminescence of each treatment as a fold change with respect to the average luminescence of the negative control.

A value given as a limit tells only on which side of the number the result lay.

Turning to `COc1cc(C)cc(OC(=O)C2=C(C)CCC3C(C)(C)CCC[C@]23C)c1` (stereo partly drawn) [6b, 3-Methoxy-5-methylphenyl-(8aS)-2,5,5,8a-tetramethyl-3,4,4a,5,6,7,8,8a-octahydronaphthalene-1-carboxylate], the IC50 in assay [1] was greater than 100 µM; in assay [2], 67.2 ± 15.3 µM; in assay [3], greater than 100 µM; in assay [4], greater than 100 µM.

As to `COc1cc(OC(=O)C2=C(C)CCC3C(C)(C)CCC[C@]23C)ccc1C=O` (stereo partly drawn) [6e, 4-Formyl-3-methoxyphenyl-(8aS)-2,5,5,8a-tetramethyl-3,4,4a,5,6,7,8,8a-octahydronaphthalene-1-carboxylate], the “caspases-3/7 activity over the control” value in assay [5] is “two-fold”. For the same compound, the half-maximal inhibitory concentration (IC50) in assay [1] was 52.9 ± 8.2 µM; in assay [2], 50 ± 8.9 µM; in assay [3], 38.1 ± 2 µM; in assay [4], 38.3 ± 2.6 µM. The “Selectivity Index (SI) MCF-10/PC-3” value in assay [1] was found to be 0.9. In addition, the “Selectivity Index (SI) MCF-10/HT-29” value in assay [3] stood at 1.3. Moreover, the “Selectivity Index (SI) MCF-10/MCF-7” value in assay [4] is recorded as 1.3.

For `COc1cc(C=O)ccc1OC(=O)C1=C(C)CCC2C(C)(C)CCC[C@]12C` (stereo partly drawn) [6f, 4-Formyl-2-methoxyphenyl-(8aS)-2,5,5,8a-tetramethyl-3,4,4a,5,6,7,8,8a-octahydronaphthalene-1-carboxylate], the “caspases-3/7 activity over the control” value in assay [5] is recorded as “two-fold”. Besides, in assay [1], 30.9 ± 2.5 µM corresponded to half-maximal inhibition (IC50) and the “Selectivity Index (SI) MCF-10/PC-3” value turned out to be 0.5. Moreover, the midpoint of inhibition in assay [2], the IC50, lay at 16.5 ± 0.9 µM. Moreover, in assay [3], 58 ± 3.9 µM corresponded to half-maximal inhibition (IC50) and the “Selectivity Index (SI) MCF-10/HT-29” value is reported as 0.3. Besides, in assay [4], the IC50 was found to be 22.4 ± 1 µM and the “Selectivity Index (SI) MCF-10/MCF-7” value is recorded as 0.7.

On to `COc1cc(OC)cc(C(=O)OC[C@H]2C(C)=CCC3C(C)(C)CCC[C@@]32C)c1` (stereo partly drawn) [8a, ((1S,8aS)-2,5,5,8a-tetramethyl-1,4,4a,5,6,7,8,8a-octahydronaphthalen-1-yl)methyl-3,5-dimethoxybenzoate], for which the IC50 is greater than 100 µM in assay [1], 44.8 ± 3.1 µM in assay [2], greater than 100 µM in assay [3] and greater than 100 µM in assay [4].

In the case of `COc1cc(C(=O)OC[C@H]2C(C)=CCC3C(C)(C)CCC[C@@]32C)cc(OC)c1C` (stereo partly drawn) [8b, ((1S,8aS)-2,5,5,8a-tetramethyl-1,4,4a,5,6,7,8,8a-octahydronaphthalen-1-yl)methyl 3,5-dimethoxy-4-methylbenzoate], the half-maximal inhibitory concentration (IC50) in assay [1] was greater than 100 µM; in assay [2], 21.2 ± 3.1 µM; in assay [3], greater than 100 µM; in assay [4], greater than 100 µM.

As for `CC1=CCC2C(C)(C)CCC[C@]2(C)[C@H]1COC(=O)c1cc(O)c(C)c(O)c1` (stereo partly drawn) [8c, ((1S,8aS)-2,5,5,8a-tetramethyl-1,4,4a,5,6,7,8,8a-octahydronaphthalen-1-yl)methyl-3,5-dihydroxy-4-methylbenzoate], in assay [5], the “caspases-3/7 activity over the control” value was “two-fold”. For the same compound, the IC50 was greater than 100 µM in assay [1], greater than 100 µM in assay [2], greater than 100 µM in assay [3] and 35.9 ± 6.4 µM in assay [4].

In the case of `COc1cc(C(=O)OC[C@H]2C(C)=CCC3C(C)(C)CCC[C@@]32C)cc(OC)c1OC` (stereo partly drawn) [8e, ((1S,8aS)-2,5,5,8a-tetramethyl-1,4,4a,5,6,7,8,8a-octahydronaphthalen-1-yl)methyl-3,4,5-trimethoxybenzoate], the IC50 in assay [1] amounted to 76.9 ± 10.2 µM; in assay [2] it was 32.1 ± 8.3 µM; in assay [3], 51.5 ± 3.2 µM; in assay [4], 51 ± 10 µM. In addition, in assay [1], the “Selectivity Index (SI) MCF-10/PC-3” value worked out at 0.4. Moreover, the “Selectivity Index (SI) MCF-10/HT-29” value in assay [3] was 0.6. For the same compound, the “Selectivity Index (SI) MCF-10/MCF-7” value in assay [4] came out at 0.6.

As for `COc1ccc(C(=O)OC[C@H]2C(C)=CCC3C(C)(C)CCC[C@@]32C)c(OC)c1OC` (stereo partly drawn) [8f, ((1S,8aS)-2,5,5,8a-tetramethyl-1,4,4a,5,6,7,8,8a-octahydronaphthalen-1-yl)methyl-2,3,4-trimethoxybenzoate], in assay [5], the “caspases-3/7 activity over the control” value is 3.5 fold. In addition, the IC50 in assay [1] was determined as 7.1 ± 1.1 µM; in assay [2], 6.8 ± 0.9 µM; in assay [3], 26.2 ± 5.4 µM; in assay [4], 6.2 ± 0.5 µM.
